According to patent US8597875B2, “Method for diagnosing liver toxicity with sex specific biomarkers” (BASF SE, priority 2008, dated 2013):

What was measured:
female rats = assay: Plasma metabolite profiling (GC-MS/LC-MS) for liver toxicity markers, 28-day gavage study, female rats; format: in vivo, rat; conditions: female rats
Protocol: (§1) A group of each 5 male and female rats was dosed once daily with the indicated compounds (see tables below) at 10 and 100 mg/kg body weight per gavage over 28 days. Additional groups of each 5 male and female animals served as controls. Before starting the treatment period, animals, which were 62-64 days old when supplied, were acclimatized to the housing and environmental conditions for 7 days. All animals of the animal population were kept under the same constant temperature (20-24±3° C.) and the same constant humidity (30-70%). Each animal of the animal population was kept in a separate cage. The animals of the animal population are fed ad libitum. The food to be used was be essentially free of chemical or microbial contaminants. Drinking water was also offered ad libitum. Accordingly, the water was be free of chemical and microbial contaminants as laid down in the European Drinking Water Directive 98/83/EG. The illumination period was 12 hours light followed by 12 hours darkness (12 hours light, from 6:00 to 18:00, and 12 hours darkness, from 18:00 to 6:00).
(§2) In the morning of day 7, 14, and 28, blood was taken from the retroorbital venous plexus from fasted anaesthetized animals. From each animal, 1 ml of blood was collected with EDTA as anticoagulant. The samples were be centrifuged for generation of plasma. All plasma samples were covered with a N2 atmosphere and then stored at −80° C. until analysis.
(§3) For mass spectrometry-based metabolite profiling analyses plasma samples were extracted and a polar and a non-polar fraction was obtained. For GC-MS analysis, the non-polar fraction was treated with methanol under acidic conditions to yield the fatty acid methyl esters. Both fractions were further derivatised with O-methyl-hydroxyamine hydrochloride and pyridine to convert Oxo-groups to O-methyloximes and subsequently with a silylating agent before analysis. In LC-MS analysis, both fractions were reconstituted in appropriate solvent mixtures. HPLC was performed by gradient elution on reversed phase separation columns. For mass spectrometric detection metanomics proprietary technology was applied which allows target and high sensitivity MRM (Multiple Reaction Monitoring) profiling in parallel to a full screen analysis.
(§4) Following comprehensive analytical validation steps, the data for each analyte were normalized against data from pool samples. These samples were run in parallel through the whole process to account for process variability. The significance of treatment group values specific for sex, dose group and metabolite was determined by comparing means of the treated groups to the means of the respective untreated control groups using WELCH-test. Normalized treatment group values and their significance were fed into a database for further statistics and data mining processes.
(§5) The changes of the group of plasma metabolites being indicative for liver toxicity after treatment of the rats are shown in the following tables: […]

male rats = assay: Plasma metabolite profiling (GC-MS/LC-MS) for liver toxicity markers, 28-day gavage study, male rats; format: in vivo, rat; conditions: male rats
Protocol: as §1, §2, §3, §4, §5

## CN(C)C=O [Dimethylformamide]
Female rats; fh7 (day 7)
  1,2-Dioleoyl-sn-glycero-3-phosphatidyl-L-serine, change of plasma metabolite: 1.35
  4-Hydroxysphinganine, change of plasma metabolite: 1.79
  Arachidonic acid (C20:cis-[5,8,11,14]4), change of plasma metabolite: 2.04
  Behenic acid (C22:0), change of plasma metabolite: 2.15
  Ceramide (d18:1, C24:0), change of plasma metabolite: 1.64
  Cholesterol, change of plasma metabolite: 2.41
  Docosahexaenoic acid (C22:cis[4,7,10,13,16,19]6), change of plasma metabolite: 2.02
  Glycerol, lipid fraction, change of plasma metabolite: 1.64
  Glycerolphosphate, lipid fraction, change of plasma metabolite: 2.37
  Heptadecanoic acid (C17:0), change of plasma metabolite: 1.43
  ID28x493, change of plasma metabolite: 2.27
  Lignoceric acid (C24:0), change of plasma metabolite: 2.01
  Linoleic acid (C18:cis[9,12]2), change of plasma metabolite: 1.90
  Nervonic acid (C24:1), change of plasma metabolite: 2.51
  Palmitic acid (C16:0), change of plasma metabolite: 1.93
  Phosphate, lipid (Phospholipids), change of plasma metabolite: 1.51
  Stearic acid (C18:0), change of plasma metabolite: 1.62
  TAG No 1, change of plasma metabolite: 2.26
  Threonic acid, change of plasma metabolite: 1.49
  Tricosanoic acid (C23:0), change of plasma metabolite: 1.65
Female rats; fh14 (day 14)
  1,2-Dioleoyl-sn-glycero-3-phosphatidyl-L-serine, change of plasma metabolite: 1.69
  4-Hydroxysphinganine, change of plasma metabolite: 2.26
  Arachidonic acid (C20:cis-[5,8,11,14]4), change of plasma metabolite: 1.93
  Behenic acid (C22:0), change of plasma metabolite: 2.48
  Ceramide (d18:1, C24:0), change of plasma metabolite: 2.13
  Cholesterol, change of plasma metabolite: 2.23
  Docosahexaenoic acid (C22:cis[4,7,10,13,16,19]6), change of plasma metabolite: 2.21
  Glycerol, lipid fraction, change of plasma metabolite: 1.88
  Glycerolphosphate, lipid fraction, change of plasma metabolite: 1.97
  Heptadecanoic acid (C17:0), change of plasma metabolite: 1.64
  ID28x493, change of plasma metabolite: 3.14
  Lignoceric acid (C24:0), change of plasma metabolite: 2.29
  Linoleic acid (C18:cis[9,12]2), change of plasma metabolite: 2.33
  Nervonic acid (C24:1), change of plasma metabolite: 2.69
  Palmitic acid (C16:0), change of plasma metabolite: 2.08
  Phosphate, lipid (Phospholipids), change of plasma metabolite: 1.35
  Stearic acid (C18:0), change of plasma metabolite: 1.67
  TAG No 1, change of plasma metabolite: 2.87
  Threonic acid, change of plasma metabolite: 1.37
Female rats; fh28 (day 28)
  1,2-Dioleoyl-sn-glycero-3-phosphatidyl-L-serine, change of plasma metabolite: 1.47
  4-Hydroxysphinganine, change of plasma metabolite: 2.22
  Arachidonic acid (C20:cis-[5,8,11,14]4), change of plasma metabolite: 1.80
  Behenic acid (C22:0), change of plasma metabolite: 2.18
  Ceramide (d18:1, C24:0), change of plasma metabolite: 1.82
  Cholesterol, change of plasma metabolite: 2.08
  Docosahexaenoic acid (C22:cis[4,7,10,13,16,19]6), change of plasma metabolite: 1.76
  Glycerol, lipid fraction, change of plasma metabolite: 1.89
  Glycerolphosphate, lipid fraction, change of plasma metabolite: 2.35
  Heptadecanoic acid (C17:0), change of plasma metabolite: 1.48
  ID28x493, change of plasma metabolite: 2.02
  Lignoceric acid (C24:0), change of plasma metabolite: 2.45
  Linoleic acid (C18:cis[9,12]2), change of plasma metabolite: 2.37
  Nervonic acid (C24:1), change of plasma metabolite: 2.91
  Palmitic acid (C16:0), change of plasma metabolite: 1.93
  Phosphate, lipid (Phospholipids), change of plasma metabolite: 1.59
  Stearic acid (C18:0), change of plasma metabolite: 1.61
  TAG No 1, change of plasma metabolite: 3.81
  Threonic acid, change of plasma metabolite: 1.19
Male rats; mh7 (day 7)
  1,2-Dioleoyl-sn-glycero-3-phosphatidyl-L-serine, change of plasma metabolite: 1.31
  4-Hydroxysphingosine, change of plasma metabolite: 2.14
  Arachidonic acid (C20:cis-[5,8,11,14]4), change of plasma metabolite: 1.68
  Behenic acid (C22:0), change of plasma metabolite: 2.07
  Ceramide (d18:1, C24:0), change of plasma metabolite: 1.72
  Ceramide (d18:1, C24:1), change of plasma metabolite: 1.71
  Cholesterol, change of plasma metabolite: 2.01
  Docosahexaenoic acid (C22:cis[4,7,10,13,16,19]6), change of plasma metabolite: 1.96
  Eicosatrienoic acid, change of plasma metabolite: 2.55
  Glycerolphosphate, lipid fraction, change of plasma metabolite: 1.86
  Heptadecanoic acid (C17:0), change of plasma metabolite: 1.27
  Lignoceric acid (C24:0), change of plasma metabolite: 2.04
  Linoleic acid (C18:cis[9,12]2), change of plasma metabolite: 1.71
  Nervonic acid (C24:1), change of plasma metabolite: 2.53
  Palmitic acid (C16:0), change of plasma metabolite: 1.38
  Phosphatidylcholine (C18:2, C20:4), change of plasma metabolite: 1.18
  alpha-Tocopherol, change of plasma metabolite: 2.69
  myo-Inositol-2-monophosphate, lipid fraction, change of plasma metabolite: 1.92
Male rats; mh14 (day 14)
  1,2-Dioleoyl-sn-glycero-3-phosphatidyl-L-serine, change of plasma metabolite: 1.28
  4-Hydroxysphingosine, change of plasma metabolite: 2.07
  Arachidonic acid (C20:cis-[5,8,11,14]4), change of plasma metabolite: 1.74
  Behenic acid (C22:0), change of plasma metabolite: 2.15
  Ceramide (d18:1, C24:0), change of plasma metabolite: 1.40
  Ceramide (d18:1, C24:1), change of plasma metabolite: 1.70
  Cholesterol, change of plasma metabolite: 2.15
  Docosahexaenoic acid (C22:cis[4,7,10,13,16,19]6), change of plasma metabolite: 1.99
  Eicosatrienoic acid, change of plasma metabolite: 2.02
  Glycerolphosphate, lipid fraction, change of plasma metabolite: 1.67
  Heptadecanoic acid (C17:0), change of plasma metabolite: 1.51
  Lignoceric acid (C24:0), change of plasma metabolite: 2.22
  Linoleic acid (C18:cis[9,12]2), change of plasma metabolite: 1.70
  Nervonic acid (C24:1), change of plasma metabolite: 3.57
  Palmitic acid (C16:0), change of plasma metabolite: 1.64
  Phosphatidylcholine (C18:2, C20:4), change of plasma metabolite: 1.17
  alpha-Tocopherol, change of plasma metabolite: 2.46
  myo-Inositol-2-monophosphate, lipid fraction, change of plasma metabolite: 2.48
Male rats; mh28 (day 28)
  1,2-Dioleoyl-sn-glycero-3-phosphatidyl-L-serine, change of plasma metabolite: 1.41
  4-Hydroxysphingosine, change of plasma metabolite: 2.35
  Arachidonic acid (C20:cis-[5,8,11,14]4), change of plasma metabolite: 1.55
  Behenic acid (C22:0), change of plasma metabolite: 2.24
  Ceramide (d18:1, C24:0), change of plasma metabolite: 1.63
  Ceramide (d18:1, C24:1), change of plasma metabolite: 1.88
  Cholesterol, change of plasma metabolite: 1.81
  Docosahexaenoic acid (C22:cis[4,7,10,13,16,19]6), change of plasma metabolite: 2.06
  Eicosatrienoic acid, change of plasma metabolite: 1.60
  Glycerolphosphate, lipid fraction, change of plasma metabolite: 1.59
  Heptadecanoic acid (C17:0), change of plasma metabolite: 1.25
  Lignoceric acid (C24:0), change of plasma metabolite: 2.52
  Linoleic acid (C18:cis[9,12]2), change of plasma metabolite: 1.49
  Nervonic acid (C24:1), change of plasma metabolite: 3.39
  Palmitic acid (C16:0), change of plasma metabolite: 1.41
  Phosphatidylcholine (C18:2, C20:4), change of plasma metabolite: 1.26
  alpha-Tocopherol, change of plasma metabolite: 1.87
  myo-Inositol-2-monophosphate, lipid fraction, change of plasma metabolite: 2.31
